Experimental data from patent publication US11618747B2, “LXR modulators with bicyclic core moiety” (OrsoBio, Inc., priority 2018, dated 2023).
pEC50: −log10 of the molar value.

Tests used:
[1] = biological target: T1, LXRβ ligand-binding domain (Homo sapiens, UniProt P55055, DUP175-175); test: TR-FRETβ activity assay (NCoA3 coactivator peptide recruitment); type: biochemical; details: TR-FRET, 1 μM 24(S)-25-epoxycholesterol prestimulation; read-out: FRETβ (EC50 range)
T1 construct: amino acids 156-461; NP009052; made in house; host or cells: E. coli
T1 sequence (P55055 with tags, fused parts or gaps DUP175-175 limits assumed): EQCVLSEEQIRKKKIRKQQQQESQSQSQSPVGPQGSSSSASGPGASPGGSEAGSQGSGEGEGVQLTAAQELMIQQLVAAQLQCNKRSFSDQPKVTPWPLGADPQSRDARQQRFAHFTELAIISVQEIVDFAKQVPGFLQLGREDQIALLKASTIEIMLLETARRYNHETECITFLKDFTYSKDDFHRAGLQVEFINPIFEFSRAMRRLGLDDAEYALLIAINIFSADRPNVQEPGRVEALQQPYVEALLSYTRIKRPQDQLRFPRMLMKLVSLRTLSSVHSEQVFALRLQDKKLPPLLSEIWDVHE
Summary of the method: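 Inverse agonism assessed by loss of coactivator recruitment, read as TR-FRET 665/615 nm after 1 h equilibration at 4 °C, in triplicate. Ten-point titration from 50 μM to 0.002 μM against LXRβ LBD (76 nM, GST fusion) prestimulated with 1 μM 24(S)-25-epoxycholesterol, with 400 nM NCoA3 peptide, pH 6.8. Sulfonyl acetic acids kept as 20 mM DMSO stocks with 100 mM TFA.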

[2] = Short term HFD mouse model: plasma and liver exposure; type: in vivo, mice (C57BL/6J); details: HFD mice, 4 h after last dose
Summary of the method: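 C57BL/6J mice on 60% fat HFD plus 1% cholesterol for 5 days, then dosed orally in 0.5% HPMC, three doses (1.5–20 mg/kg each): morning and evening day 1, final morning dose day 2 after 4 h fast. Sacrificed 4 h post-dose; liver snap-frozen, plasma collected.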

| SMILES | pEC50 [1] | liver exposure 4 h ([2]; three oral doses of 10 mg/kg) | liver/plasma ratio 4 h ([2]; three oral doses of 10 mg/kg) | plasma exposure 4 h ([2]; three oral doses of 10 mg/kg) | liver exposure 4 h ([2]; three oral doses of 20 mg/kg) | liver/plasma ratio 4 h ([2]; three oral doses of 20 mg/kg) | plasma exposure 4 h ([2]; three oral doses of 20 mg/kg) |
| --- | --- | --- | --- | --- | --- | --- | --- |
| N#Cc1cccc(C#N)c1-c1c(-c2cccc(-c3cc(F)c(C(=O)O)cc3Cl)c2)n(S(=O)(=O)c2ccc(C(F)F)cc2)c2ccc(F)cc12 [11/65] | > 7.00 | C (1 μM to ≤10 μM) | C (30 to ≤100) | D (D: <100 nM) |  |  |  |
| N#Cc1cccc(C#N)c1-c1c(-c2cccc(-c3ccc(C(=O)NCC(=O)O)cc3Cl)c2)n(S(=O)(=O)c2ccc(C(F)F)cc2)c2ccc(F)cc12 [21/3] | > 7.00 | C (1 μM to ≤10 μM) | D (>100) | D (D: <100 nM) |  |  |  |
| Cc1ccc(S(=O)(=O)n2c(-c3cccc(-c4ccc(C(=O)O)cc4)c3)c(-c3ccsc3C#N)c3cc(F)ccc32)cc1C [23/2] | 6.00 to 7.00 |  |  |  | A (<300 nM) | A (<5) | C (C: 100 nM to <300 nM) |
